What is called IC50 is the point on the concentration scale where inhibition reaches its midpoint.

From US7329657B2, “Indazolyl-substituted pyrroline compounds as kinase inhibitors” (Ortho-McNeil Pharmaceutical, Inc., priority 2000, dated 2008) come the findings set out here.

Format in all cases: biochemical
The target in one assay is PKC β-II (Homo sapiens, UniProt P05771). The assay is described as follows: Protein Kinase C Histone-Based Assay, β-II isoform. The settings on record: histone III substrate, 30 μM ATP, 10 min at 30° C.; read-out: PKC Activity (IC50 μM, Histone Based Assay) Beta II. Here is the method:
(§1) Compounds were evaluated for PKC selectivity using histone III as the substrate. […] The reaction was incubated for 10 min at 30° C. Reactions were terminated by TCA precipitation and spotting on Whatman P81 filters. Filters were washed in 75 mM phosphoric acid and the radioactivity quantified by liquid scintillation counting.

A further assay has as its target PKC γ (Homo sapiens, UniProt P05129). The assay is described as follows: Protein Kinase C Histone-Based Assay, γ isoform. The settings on record: histone III substrate, 30 μM ATP, 10 min at 30° C.; read-out: PKC Activity (IC50 μM, Histone Based Assay) Gamma. Here is the method:
as §1

The next assay addresses PKC α (Homo sapiens, UniProt P17252). The experiment in a line: Protein Kinase C Histone-Based Assay, α isoform. The settings on record: histone III substrate, 30 μM ATP, 10 min at 30° C.; read-out: PKC Activity (IC50 μM, Histone Based Assay) Alpha. Here is the method: as §1
Assay [1] addresses T1, recombinant rabbit GSK-3β protein (Oryctolagus cuniculus, UniProt G1T8E2).
T1 construct: purchased New England Biolabs
The assay is described as follows: Glycogen Synthase Kinase-3 Assay. The settings on record: PPI-2 substrate, 33P-ATP, 90 minutes at 30° C. As to the method:
Compounds were tested for the ability to inhibit recombinant rabbit GSK-3β protein using the following protocol. The test compound was added to a reaction mixture containing Protein phosphatase inhibitor-2 (PPI-2) (Calbiochem) (45 ng), rabbit GSK-3β protein (New England Biolabs) (0.75 units) and ^33P-ATP (1 μCi) in 50 mM Tris-HCl (pH 8.0), 10 mM MgCl2, 0.1% BSA, 1 mM DTT and 100 μM Sodium Vanadate. The mixture was reacted for 90 minutes at 30° C. to allow phosphorylation of the PPI-2 protein and then the protein in the reaction was precipitated using 10% TCA. The precipitated protein was collected on filter plates (MultiScreen-DV/Millipore), which were subsequently washed. Finally, the radioactivity was quantified using a TopCount Scintillation Counter (Packard).

Chain of PKC β-II (P05771 1-673 isoform P05771-2): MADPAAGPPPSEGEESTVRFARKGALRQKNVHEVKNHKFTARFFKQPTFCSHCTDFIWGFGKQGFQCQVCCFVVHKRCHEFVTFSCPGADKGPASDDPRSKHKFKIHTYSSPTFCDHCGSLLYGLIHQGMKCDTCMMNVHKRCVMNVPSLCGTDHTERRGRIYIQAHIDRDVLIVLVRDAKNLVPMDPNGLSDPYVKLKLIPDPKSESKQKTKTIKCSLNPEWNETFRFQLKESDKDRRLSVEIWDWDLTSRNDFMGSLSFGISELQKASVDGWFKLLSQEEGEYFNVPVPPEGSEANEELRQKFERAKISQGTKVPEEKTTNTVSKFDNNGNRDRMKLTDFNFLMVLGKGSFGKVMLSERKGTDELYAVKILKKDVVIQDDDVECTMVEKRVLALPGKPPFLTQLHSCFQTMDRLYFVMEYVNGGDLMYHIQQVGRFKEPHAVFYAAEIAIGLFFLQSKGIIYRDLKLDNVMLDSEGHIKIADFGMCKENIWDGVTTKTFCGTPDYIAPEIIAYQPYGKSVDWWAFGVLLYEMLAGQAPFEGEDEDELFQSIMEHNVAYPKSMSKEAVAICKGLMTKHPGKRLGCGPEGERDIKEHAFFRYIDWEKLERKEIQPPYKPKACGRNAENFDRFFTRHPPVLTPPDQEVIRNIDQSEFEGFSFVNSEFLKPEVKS
T1 sequence (G1T8E2 1-432): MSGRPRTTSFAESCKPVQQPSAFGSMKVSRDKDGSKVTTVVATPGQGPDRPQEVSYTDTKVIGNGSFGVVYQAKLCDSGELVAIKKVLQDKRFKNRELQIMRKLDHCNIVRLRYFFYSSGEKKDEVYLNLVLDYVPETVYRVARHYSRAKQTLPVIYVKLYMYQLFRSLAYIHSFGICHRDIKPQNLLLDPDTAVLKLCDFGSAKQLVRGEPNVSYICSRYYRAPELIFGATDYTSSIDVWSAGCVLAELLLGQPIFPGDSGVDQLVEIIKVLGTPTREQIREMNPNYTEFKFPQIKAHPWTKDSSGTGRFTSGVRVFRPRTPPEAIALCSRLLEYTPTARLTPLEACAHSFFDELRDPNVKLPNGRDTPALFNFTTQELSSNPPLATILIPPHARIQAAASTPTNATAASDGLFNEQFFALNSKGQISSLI

As to “3-(1-ethyl-1H-indol-3-yl)-4-[1-[3-(4-morpholinyl)propyl]-1H-indazol-3-yl]-1H-pyrrole-2,5-dione [Compound 69]”, the half-inhibitory concentration (IC50) at PKC β-II was 0.014 µM; at PKC γ, 0.55 µM; at PKC α, 0.25 µM; in assay [1] it was 0.018 µM.

For `C=Cn1cc(C2=C(c3nn(CC(O)CN(C)C)c4ccccc34)C(=O)NC2=O)c2ccccc21` (stereo not shown) [Compound 1, 3-[1-[3-(dimethylamino)-2-hydroxypropyl]-1H-indazol-3-yl]-4-(1-ethenyl-1H-indol-3-yl)-1H-pyrrole-2,5-dione], the IC50 on PKC β-II amounted to 0.014 µM; at PKC γ it was 0.058 µM; at PKC α, 0.052 µM; in assay [1], 0.09 µM.

With `C=Cn1cc(C2=C(c3nn(CCCN(C)C)c4ccccc34)C(=O)NC2=O)c2ccccc21` [Compound 3, 3-[1-[3-(dimethylamino)propyl]-1H-indazol-3-yl]-4-(1-ethenyl-1H-indol-3-yl)-1H-pyrrole-2,5-dione], the IC50 worked out at 0.023 µM at PKC β-II, 0.323 µM on PKC γ, 0.248 µM at PKC α and 0.049 µM in assay [1].

As to `C=Cn1cc(C2=C(c3nn(CCCN(C)C)c4ccccc34)C(=O)NC2=O)c2cc(Cl)ccc21` [Compound 6, 3-(5-chloro-1-ethenyl-1H-indol-3-yl)-4-[1-[3-(dimethylamino)propyl]-1H-indazol-3-yl]-1H-pyrrole-2,5-dione], the IC50 at PKC β-II stood at 0.013 µM; at PKC γ, 0.129 µM; on PKC α, 0.105 µM; in assay [1] it was 0.048 µM.

On to `CCn1cc(C2=C(c3nn(CCCN(C)C)c4ccccc34)C(=O)NC2=O)c2cc(Cl)ccc21` [Compound 46, 3-(5-chloro-1-ethyl-1H-indol-3-yl)-4-[1-[3-(dimethylamino)propyl]-1H-indazol-3-yl]-1H-pyrrole-2,5-dione], for which the IC50 turned out to be 0.005 µM on PKC β-II, 0.123 µM on PKC γ, 0.308 µM on PKC α and 0.01 µM in assay [1].

For `O=C1NC(=O)C(c2nn(CCCN3CCOCC3)c3ccccc23)=C1c1cn(-c2cccnc2)c2ccccc12` [Compound 68, 3-[1-[3-(4-morpholinyl)propyl]-1H-indazol-3-yl]-4-[1-(3-pyridinyl)-1H-indol-3-yl]-1H-pyrrole-2,5-dione], the 50% inhibitory concentration (IC50) was 0.011 µM at PKC β-II, 0.426 µM at PKC γ, 0.217 µM on PKC α and 0.096 µM in assay [1].

In the case of `Cn1cc(C2=C(c3nn(CCCN4CCCC4)c4ccccc34)C(=O)NC2=O)c2cc(Cl)ccc21` [Compound 75, 3-(5-chloro-1-methyl-1H-indol-3-yl)-4-[1-[3-(1-pyrrolidinyl)propyl]-1H-indazol-3-yl]-1H-pyrrole-2,5-dione], the IC50 on PKC β-II came to 0.01 µM; on PKC γ, 0.175 µM; on PKC α, 0.204 µM; in assay [1], 0.033 µM.

Regarding `CN1CCN(CCCn2nc(C3=C(c4cn(C)c5ccc(Cl)cc45)C(=O)NC3=O)c3ccccc32)CC1` [Compound 77, 3-(5-chloro-1-methyl-1H-indol-3-yl)-4-[1-[3-(4-methyl-1-piperazinyl)propyl]-1H-indazol-3-yl]-1H-pyrrole-2,5-dione], the IC50 is 0.046 µM on PKC β-II, 0.89 µM on PKC γ, 0.354 µM at PKC α and 0.043 µM in assay [1].

As for `Cn1cc(C2=C(c3nn(CCCN4CCOCC4)c4ccccc34)C(=O)NC2=O)c2cc(Cl)ccc21` [Compound 78, 3-(5-chloro-1-methyl-1H-indol-3-yl)-4-[1-[3-(4-morpholinyl)propyl]-1H-indazol-3-yl]-1H-pyrrole-2,5-dione], the IC50 on PKC β-II came to 0.016 µM; at PKC γ it was 0.53 µM; on PKC α, 0.94 µM; in assay [1] it was 0.041 µM.

`CN(CCO)CCCn1nc(C2=C(c3cn(C)c4ccc(Cl)cc34)C(=O)NC2=O)c2ccccc21` [Compound 79, 3-(5-chloro-1-methyl-1H-indol-3-yl)-4-[1-[3-[(2-hydroxyethyl)methylamino]propyl]-1H-indazol-3-yl]-1H-pyrrole-2,5-dione]: the IC50 was 0.007 µM at PKC β-II, 0.074 µM on PKC γ, 0.065 µM at PKC α and 0.014 µM in assay [1].

Take `CNCCCn1nc(C2=C(c3cn(C)c4ccc(Cl)cc34)C(=O)NC2=O)c2ccccc21` [Compound 80, 3-(5-chloro-1-methyl-1H-indol-3-yl)-4-[1-[3-(methylamino)propyl]-1H-indazol-3-yl]-1H-pyrrole-2,5-dione]: the IC50 at PKC β-II worked out at 0.018 µM; at PKC γ it was 0.512 µM; at PKC α, 0.328 µM; in assay [1], 0.051 µM.

For `O=C1NC(=O)C(c2nn(CCCO)c3ccccc23)=C1c1cn(-c2cccnc2)c2ccccc12` [Compound 94, 3-[1-(3-hydroxypropyl)-1H-indazol-3-yl]-4-[1-(3-pyridinyl)-1H-indol-3-yl]-1H-pyrrole-2,5-dione], the IC50 was found to be 0.011 µM on PKC β-II, 0.411 µM at PKC γ, 0.306 µM on PKC α and 0.058 µM in assay [1].

With `O=C1NC(=O)C(c2nn(CCCO)c3ccccc23)=C1c1cn(-c2cnc3ccccc3c2)c2ccccc12` [Compound 107, 3-[1-[3-hydroxypropyl]-1H-indazol-3-yl]-4-[1-(3-quinolinyl)-1H-indol-3-yl]-1H-pyrrole-2,5-dione], the IC50 at PKC β-II came to 0.009 µM; at PKC γ it was 0.018 µM; at PKC α it was 0.098 µM; in assay [1] it was 0.82 µM.

In the case of `O=CCCn1nc(C2=C(c3cn(-c4cccnc4)c4ccccc34)C(=O)NC2=O)c2ccccc21` [Compound 112, 1H-indazole-1-propanal, 3-[2,5-dihydro-2,5-dioxo-4-[1-(3-pyridinyl)-1H-indol-3-yl]-1H-pyrrol-3-yl]-1H-pyrrole-2,5-dione], the IC50 in assay [1] turned out to be 0.115 µM.

As to `CN(CCO)CCCn1nc(C2=C(c3cn(-c4cccnc4)c4ccccc34)C(=O)NC2=O)c2ccccc21` [Compound 114, 3-[1-[3-[(2-hydroxyethyl)methylamino]propyl]-1H-indazol-3-yl]-4-[1-(3-pyridinyl)-1H-indol-3-yl]-1H-pyrrole-2,5-dione], the IC50 is 0.004 µM at PKC β-II, 0.038 µM on PKC γ, 0.047 µM on PKC α and 0.155 µM in assay [1].

For `CC(C)(C)OC(=O)NCCCn1nc(C2=C(c3cn(-c4cccnc4)c4ccccc34)C(=O)NC2=O)c2ccccc21` [Compound 115, [3-[3-[2,5-dihydro-2,5-dioxo-4-[1-(3-pyridinyl)-1H-indol-3-yl]-1H-pyrrol-3-yl]-1H-indazol-1-yl]propyl]-carbamic acid 1,1-dimethylethyl ester], the IC50 in assay [1] amounted to 0.055 µM.

Take `COCCCn1nc(C2=C(c3cn(-c4cccnc4)c4ccccc34)C(=O)NC2=O)c2ccccc21` [Compound 117, 3-[1-(3-methoxypropyl)-1H-indazol-3-yl]-4-[1-(3-pyridinyl)-1H-indol-3-yl]-1H-pyrrole-2,5-dione]: the IC50 at PKC β-II worked out at 0.034 µM; in assay [1], 0.07 µM.

As for `O=C1NC(=O)C(c2cn(-c3cccnc3)c3ccccc23)=C1c1[nH]nc2ccccc12` [Compound 118, 3-(1H-indazol-3-yl)-4-[1-(3-pyridinyl)-1H-indol-3-yl]-1H-pyrrole-2,5-dione], the IC50 in assay [1] was 0.2 µM.
